In US20200362314A1, “METHODS TO PRODUCE ADULT-LIKE CARDIOMYOCYTES DERIVED FROM INDUCED PLURIPOTENT STEM CELLS FOR DRUG DISCOVERY” (THE REGENTS OF THE UNIVERSITY OF COLORADO, A BODY CORPORATE, priority 2019, published 2020):
“Also recorded” adds a separate entry of the source. Marks after values point to notes of the source that are not given here.

What was measured:
neonatal cardiomyocytes = conditions: in vitro; cited from earlier work
[1] = system: adult mouse ventricular cardiomyocytes (AMVCMs); assay: Hypertrophic response (cell area) of adult mouse ventricular cardiomyocytes; assay type: cell-based
Method: (§1) Panels A-B show representative images of BNP staining and quantification of BNP and pro-NT-BNP-positive hiPSC-CMs cultured and treated as described in FIGS. 12A-B. Panels C-D show representative brightfield images and cell area of AMVCMs under indicated conditions. AMVCMs were isolated from 8-12 week old adult mice then treated with vehicle, 10 μM phenylephrine (PE) or 10 μM PE and 1 μM JQ-1 for 72 hours, then fixed. **** p<0.0001, Kruskal-Wallis test followed by Dunn's multiple comparison test. Cell areas measured on 664-706 cardiomyocytes pooled from four separate cardiomyocyte isolations.
Cardiomyocyte Isolation: 15 minutes prior to beginning isolation, mice were injected with 300 μL of heparin (10,000 units/mL). Mice were then anesthetized via inhalation of isofluorane, and when becoming unresponsive to toe pinch were killed via cervical dislocation. The chest was then opened, and the heart was removed rapidly and placed in ice-cold perfusion buffer (10 mM creatine monohydrate, 30 mM Taurine, 5.6 mM Dglucose, 4.6 mM NaHCO3, 10 mM BDM, 120 mM NaCl, 15 mM KCl, 0.6 mM Na2HPO4, 0.6 mM KH2PO4, 1.2 mM MgSO4, 10 mM Hepes, filtered at 0.40 μm, pH 7.4). The heart was washed briefly in perfusion buffer, and excess fat/thymus tissue trimmed off. […] Cells were then inspected and counted, and if <60% of myocytes were rod-shaped (viable) the cells were not used for experimentation. […]

myofibrils from AMVCMs = assay: Myofibril mechanics of AMVCMs; assay type: cell-based, mouse
Method: Myofibril mechanics data from AMVCMs isolated from 8-12 week old adult mice and treated with vehicle or 10 μM PE for 72 hours before myofibril isolation. Note that rodent myofibrils display profoundly faster kinetics of both activation and relaxation at baseline compared to myofibrils from human hiPSC-CMs and cardiac tissue. *, p<0.05, Student t test. 21-26 myofibrils were isolated from three separate cardiomyocyte isolations. A complete table of myofibril mechanics data on AMVCMs can be seen in Table 6.
Cardiomyocyte Isolation: 15 minutes prior to beginning isolation, mice were injected with 300 μL of heparin (10,000 units/mL). Mice were then anesthetized via inhalation of isofluorane, and when becoming unresponsive to toe pinch were killed via cervical dislocation. The chest was then opened, and the heart was removed rapidly and placed in ice-cold perfusion buffer (10 mM creatine monohydrate, 30 mM Taurine, 5.6 mM Dglucose, 4.6 mM NaHCO3, 10 mM BDM, 120 mM NaCl, 15 mM KCl, 0.6 mM Na2HPO4, 0.6 mM KH2PO4, 1.2 mM MgSO4, 10 mM Hepes, filtered at 0.40 μm, pH 7.4). The heart was washed briefly in perfusion buffer, and excess fat/thymus tissue trimmed off. The aorta was then cannulated using a blunted 20-gauge needle, and was mounted on a Langendorff apparatus (Radnoti, Covina, Calif.) with a heating pump kept at 37° C. for the duration of the isolation (VWR International, Radnor, Pa.). Hearts were mounted on the Langendorff apparatus within 3-7 minutes of removing from the body. The heart was then perfused in retrograde fashion at a rate of 4 mL/minute, driven by a Rainin™ Rabbit peristaltic pump (Mettler Toledo, Columbus, Ohio). To remove blood from the heart's vessels, it was first perfused for 3 min using perfusion buffer. Buffer was then switched to calcium-free digestion buffer (perfusion buffer with 1.3 mg/mL collagenase II) for 3 min and was then switched to digestion buffer supplemented with […] CaCl2. Hearts were perfused with high-calcium digestion buffer for another 6 to 10 minutes, once the heart became extremely soft and compliant. The heart was then removed from the cannulating needle and placed in a 60 mm culture dish with 2.5 mL high-calcium digestion buffer. The atria and right ventricle were then removed, and the left ventricle dissociated using a pipette and forceps. Once the heart was completely dissociated, digestion was halted by the addition of 7.5 mL stopping buffer (perfusion buffer with 10% (vol/vol) FBS and […] CaCl2). The cardiomyocyte suspension was then filtered through 200-μm mesh into a 50-mL conical tube, and the culture dish washed with an additional 10 mL stopping buffer, which was then filtered into the conical tube as well. This cell suspension was then allowed to incubate for 10 minutes at room temperature, allowing a cardiomyocyterich pellet to form. The fibroblast-rich supernatant was discarded, while the pellet with was resuspended in 10 mL of stopping buffer. 100 mM CaCl2 solution was then added to this buffer in a stepwise manner, with 2-min intervals between each addition: calcium concentration was first increased to 112.5 μmol/L, then to 312.5 μmol/L, then 712.5 μmol/L, and finally to 1.4 mmol/L. The cell suspension was then centrifuged at 1,000×g for 3 min at room temperature. Cells were then inspected and counted, and if <60% of myocytes were rod-shaped (viable) the cells were not used for experimentation. Cardiomyocytes were then resuspended in plating medium [perfusion buffer with 2.5% (vol/vol) FBS, 1% (vol/vol) penicillin/streptomycin (P/S), and 1.4 mM CaCl2, and plated on either 6 well plates (for myofibril mechanics) or 24 well plates (for hypertrophy imaging) coated with 9-10 μg/mL Laminin. […]

[2] = system: adult rat cardiac (ARVM) myofibrils; conditions: 48 hours of PE treatment; cited from earlier work
hiPSC-CMs [3] = assay: Hypertrophic response (cell area) of hiPSC-CMs; assay type: cell-based, human; conditions: for increase in cell area: vs vehicle
Method: Panels A-B show an image and graph, respectively, depicting hiPSC-CMs cultured under indication conditions and treated with vehicle, 10 μM phenylephrine (PE) or 10 μM PE and 1 μM JQ-1 (a BET Bromodomain inhibitor) for 48 hours, then fixed and stained for α-actinin (green) and Hoescht 3342 (blue). Representative images are shown in panel A. Cell area of hiPSC-CMs were quantified in panel B. Cell areas measured on 616-789 cardiomyocytes pooled from four independent inductions. Panel C is a graph depicting qPCR for B-type natriuretic peptide, normalized to 18S rRNA and shown as fold change relative to GLUC, from cDNA prepared from four independent inductions. Panels D-F depict data showing characterization of cardiac hypertrophy in Danon hiPSC-CMs under various culture conditions, and their comparison to the hypertrophy observed in human patients. In Panel D, hypertrophy (as assessed by left ventricular posterior wall thickness, LVPW) in the hearts of human patients is shown. […] Cell areas measured on 356-1056 cardiomyocytes pooled from two independent inductions. *, **, **** p<0.05, 0.01, 0.0001, Kruskal-Wallis test followed by Dunn's multiple comparison test (B,D) or one way ANOVA followed by Tukey's multiple comparison test on log2 transformed data (C).
Cell imaging studies: Cells on small unpatterned or patterned surfaces in 24 well plates were used for immunofluorescent staining. Briefly, cells were washed with PBS, then fixed either with 4% paraformaldehyde (PFA) in PBS (10 minutes at room temperature) or a 1:1 mixture of methanol and acetone (5minutes at -20° C.). After fixation, cells were washed with PBS, then permeabilized with 0.2% Triton-X 100 in PBS (10 minutes at room temperature). Methanol/acetone fixation was used for images shown in FIG. 1 (staining for α-actinin, MYBPC3, c-TNI, and MLC-2V). PFA fixation was used for all other experiments. All measurements of cell area and hypertrophy were conducted on PFA fixed cells.
For cell area measurements, cells were PFA fixed and stained for α-actinin as described above, then counterstained with HCS CellMask™ Orange (Thermo Fisher Scientific, Waltham, Mass.), diluted 1:2, 500 in PBS, for 30 minutes at room temperature.
All imaging was conducted on an EVOS FL Cell Imaging System (Thermo Fisher Scientific, Waltham, MA). All image analysis including measurements of cell area, circularity, and sarcomere length were conducted using Image J.

[4] = system: myofibrils from MPAT hiPSC-CMs; assay: Myofibril mechanics of MPAT hiPSC-CMs; assay type: cell-based, human
Text: FIG. 13 is graphs showing results that indicate that phenylephrine treatment induces changes in myofibril relaxation which are similar to those observed in human hypertrophic cardiomyopathy. […] Myofibrils were isolated from 4 donor and 4 HCM hearts, with at least 6 myofibrils isolated per heart. […] 44-45 myofibrils isolated per condition, pooled from 3 independent inductions. Complete tables of myofibril data from these experiments are available in Tables 4 and 5. *, **, **** p<0.05, 0.01, 0.0001, Student's t test on log2-transformed data.
To isolate myofibrils from adult mouse cardiomyocytes and stem cell derived cardiomyocytes, cells were lysed and myofibrils prepared using an adaption from a recently described method. In brief, cells were lysed in relaxing solution with protease inhibitors and 20% (w/vol) sucrose, using a scraper. The lysed cell solution was then transferred into a microfuge tube and incubated on ice for 10 minutes with periodic vortexing. The cell/myofibril solution was then centrifuged at 1,500 g for 5 minutes at 4° C., and the cell/myofibril pellet resuspended in fresh relaxing solution with protease inhibitors. This process was repeated twice to remove any residual sucrose, and the cell/myofibril solution was then homogenized.
Myofibril mechanics were quantified using the fast solution switching technique on a custom-built experimental rig. Myofibril suspensions were plated onto a temperature controlled glass coverslip (15° C.) containing relaxing solution. Single myofibrils and myofibril bundles were then picked up from the surface of this coverslip and mounted between two glass micro-tools. One tool, the stretcher, was linked to a motor which could produce rapid changes in length (Mad City Labs, Madison, Wis.), while the second tool was a calibrated cantilevered force probe (6-8 μm/μN; frequency response 2-5 KHz), which was colored with black ink to increase probe sensitivity. After mounting myofibrils between microtools, they were stretched to 5-10% above slack myofibril length. Average sarcomere lengths and myofibril diameters were measured using ImageJ software. Mounted myofibrils were then activated and relaxed by rapidly changing the position of a double-barreled pipette simultaneously releasing activating solution (pCa 4.5) and relaxing solution (pCa 9.0) from each barrel. By rapidly changing the position of the pipette, the mounted myofibril could be induced to activate and relax. From the activation/relaxation trace produced, the following parameters were acquired: resting tension, the passive tension produced in relaxing conditions, induced by a push on the stretcher; maximum tension (mN/mm2), the greatest level of active tension generated by the myofibril at full calcium activation (pCa 4.5); activation kinetics (kAct), the rate constant of tension development following myofibril activation; reactivation kinetics (kTr), the rate constant of tension redevelopment following myofibril release/stretch to break cross bridges; slow phase relaxation kinetics (kREL,SLOVV), the kinetics of the initial slow/linear phase of myofibril relaxation, slow phase relaxation time (TLIN), the duration of the slow phase of relaxation, from the switching of the pipette to relaxing solution to the beginning of the fast phase of relaxation; fast phase relaxation kinetics (kREL,FAST), the rate constant of the fast (exponential) phase of relaxation.

adult cardiomyocytes = conditions: in vitro, typical response; cited from earlier work
hiPSC-CMs [5] = assay: BNP / pro-NT-BNP immunofluorescent staining of hiPSC-CMs; assay type: cell-based, human; conditions: GLUC hiPSC-CMs; 10 μM PE, 48 hours
Method: as §1
For B-type natriuretic peptide (BNP) staining, an adaption of a previously published method was used: cells were PFA fixed, then blocked and permeabilized for 30 minutes with 5% milk/0.1% Triton X-100/PBS (blocking solution) for 30 minutes at room temperature. Cells were then incubated with pro-BNP antibody diluted in blocking solution overnight at 4° C. Cells were then washed four times in 0.05% Triton-X 100/PBS for 5 minutes, and incubated with secondary antibody diluted in blocking solution for hour at room temperature. Cells were then washed twice in 0.05% Triton-X 100/PBS for 5 minutes, counterstained with Hoescht 3342 as described above, and washed twice more.
All imaging was conducted on an EVOS FL Cell Imaging System (Thermo Fisher Scientific, Waltham, MA). […]

[6] = MPAT hiPSC-CMs, 10 μM PE, 48 hours, mean ± SEM

CNC[C@H](O)c1cccc(O)c1 [PE, phenylephrine]
increase in cell area (neonatal cardiomyocytes): 50-100%
increase in cell area ([1]; 10 μM PE, 72 hours): 16%
Max. tens. (myofibrils from AMVCMs; 10 μM PE, 72 hours, mean ± SEM): 68.55 ± 6.39 mN/mm^2
Rest. tens. (myofibrils from AMVCMs; 10 μM PE, 72 hours, mean ± SEM): 6.94 ± 1.07 mN/mm^2
kACT (myofibrils from AMVCMs; 10 μM PE, 72 hours, mean ± SEM): 4.45 ± 0.33 s⁻¹
kREL, FAST (myofibrils from AMVCMs; 10 μM PE, 72 hours, mean ± SEM): 36.61 ± 4.59 s⁻¹
kREL, SLOW (myofibrils from AMVCMs; 10 μM PE, 72 hours, mean ± SEM): 1.83 ± 0.32 s⁻¹
kTR (myofibrils from AMVCMs; 10 μM PE, 72 hours, mean ± SEM): 3.12 ± 0.30 s⁻¹
tLIN (myofibrils from AMVCMs; 10 μM PE, 72 hours, mean ± SEM): 45.83 ± 2.58* mSec
shortening of linear phase of relaxation (myofibrils from AMVCMs; PE vs PBS (Table 6)): ~10 ms
effect on myofibril calcium sensitivity [2]: increased myofibril calcium sensitivity
effect on the kinetics of myofibril activation or relaxation [2]: no effect
increase in cell area (hiPSC-CMs [3]; MM hiPSC-CMs, 10 μM PE, 48 hours): 29%
increase in cell area (hiPSC-CMs [3]; MPAT hiPSC-CMs, 10 μM PE, 48 hours): 19%
effect on cell area (hiPSC-CMs [3]; hiPSC-CMs cultured in glucose-containing medium (GLUC), 10 μM PE, 48 hours): no effect; also recorded: no hypertrophic response
Max. tens. [4, 6]: 44.04 ± 5.05 mN/mm^2
Rest. tens. [4, 6]: 6.15 ± 0.90 mN/mm^2
kACT [4, 6]: 1.03 ± 0.08 s⁻¹
kREL, FAST [4, 6]: 8.64 ± 0.77* s^−1
kREL, SLOW [4, 6]: 0.58 ± 0.12 s⁻¹
kTR [4, 6]: 0.80 ± 0.06 s⁻¹
tLIN [4, 6]: 113.6 ± 6.2**** mSec
shortening of linear phase of relaxation ([4]; hiPSC-CMs, PE vs vehicle (Table 5)): more than 80 msec
increase in cell area (adult cardiomyocytes): 10-30%
cells staining positive for BNP expression (hiPSC-CMs [5]): not increased

Cc1sc2c(c1C)C(c1ccc(Cl)cc1)=N[C@@H](CC(=O)OC(C)(C)C)c1nnc(C)n1-2 [JQ-1]
decrease in cell area ([1]; 10 μM PE and 1 μM JQ-1, 72 hours): 11%
effect on cell area (hiPSC-CMs [3]; GLUC hiPSC-CMs, 10 μM PE and 1 μM JQ-1, 48 hours): profoundly reduced cell area; also recorded: reduced cell area significantly beyond baseline
reduction of cell area relative to PE-treated cells (hiPSC-CMs [3]; MM hiPSC-CMs, 10 μM PE and 1 μM JQ-1, 48 hours): 17%
reduction of cell area relative to PE-treated cells (hiPSC-CMs [3]; MPAT hiPSC-CMs, 10 μM PE and 1 μM JQ-1, 48 hours): 31%
